In article PMC10877568 (ACS Chemical Biology, 2024):

How the values were obtained:
Type in all cases: binding
[1] = biological target: T1, Siglec-9 V-set domain (Siglec-9d1) (Homo sapiens, UniProt Q9Y336, C36S); test: Isothermal titration calorimetry
[2] = biological target: T1, Siglec-9 V-set domain (Siglec-9d1); test: 1H-15N HSQC NMR titration
mVENUS = test: STD-NMR control experiment with mVENUS

T1 sequence (Q9Y336 18-144 C36S): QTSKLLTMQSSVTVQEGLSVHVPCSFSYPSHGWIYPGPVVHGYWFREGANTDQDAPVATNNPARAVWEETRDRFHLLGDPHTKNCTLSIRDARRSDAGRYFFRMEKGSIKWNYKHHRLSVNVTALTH

ΔH ([1]; ITC, Siglec-9d1) [kcal/mol] | fold higher affinity for Siglec-9 than the glycan with unsubstituted Neu5Ac ([1]; comparison with the unsubstituted glycan) [fold] | fold higher affinity toward Siglec-9 than BTCNeu5Ac ([1]; from ITC KD values) | Kd [2] [µM] | STD NMR signals on binding to mVENUS (mVENUS) | Compound
-10.2 | > 20 | approximately 2 fold |  |  | 9N-[5-(2-methylthiazol-4-yl)thiophene sulfonamide]-Neu5Acα(2–6)Galβ(1–4)GlcNAc [^MTTSNeu5Ac]
 |  |  | 499 ± 74 | did not produce any STD NMR signals | CC(=O)N[C@H]1[C@H]([C@H](O)[C@H](O)CO)O[C@@](O[C@H]2[C@@H](O)[C@@H](CO)O[C@@H](O[C@@H]([C@H](O[C@@H]3O[C@@H](C)[C@@H](O)[C@@H](O)[C@@H]3O)[C@H](C=O)NC(C)=O)[C@H](O)CO)[C@@H]2O)(C(=O)O)C[C@@H]1O [sLeX, Neu5Ac(α2-3)Gal(β1-4)[Fuc(1-3)]GlcNAc]
